Assay results: article PMC4888466 (Biochemical Journal, 2016)

How the values were obtained:
RML-1 = target: T1, RML-1 (Caenorhabditis elegans, UniProt Q9XUS4); assay: EnzChek pyrophosphate assay, […] nm; type: biochemical; conditions: 1 mM Glc-1-P; 5 mM MgCl2, pH 7.5, 25°C
T1 sequence (Q9XUS4 1-511): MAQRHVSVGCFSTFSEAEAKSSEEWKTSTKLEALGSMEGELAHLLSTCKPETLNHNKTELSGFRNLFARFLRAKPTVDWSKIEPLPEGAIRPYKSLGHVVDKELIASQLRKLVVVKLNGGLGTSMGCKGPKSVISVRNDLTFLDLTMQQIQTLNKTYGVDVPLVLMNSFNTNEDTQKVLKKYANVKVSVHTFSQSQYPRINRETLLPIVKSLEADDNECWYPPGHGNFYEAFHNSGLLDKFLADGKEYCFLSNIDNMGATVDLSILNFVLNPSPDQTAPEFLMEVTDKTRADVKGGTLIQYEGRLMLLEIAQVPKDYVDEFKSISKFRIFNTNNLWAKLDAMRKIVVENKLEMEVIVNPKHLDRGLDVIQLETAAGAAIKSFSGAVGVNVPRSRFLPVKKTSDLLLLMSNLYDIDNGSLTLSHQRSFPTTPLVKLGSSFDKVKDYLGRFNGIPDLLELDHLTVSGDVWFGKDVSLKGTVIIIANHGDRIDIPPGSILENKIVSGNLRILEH

RML-4–RML-5 = target: T2, RML-4–RML-5 (Caenorhabditis elegans, UniProt Q17556); assay: LC–MS; type: biochemical; conditions: formed from dTDP-4-keto-6-deoxyglucose with RML-3 and NAD(P)H, 25°C
T2 sequence (Q17556 1-631): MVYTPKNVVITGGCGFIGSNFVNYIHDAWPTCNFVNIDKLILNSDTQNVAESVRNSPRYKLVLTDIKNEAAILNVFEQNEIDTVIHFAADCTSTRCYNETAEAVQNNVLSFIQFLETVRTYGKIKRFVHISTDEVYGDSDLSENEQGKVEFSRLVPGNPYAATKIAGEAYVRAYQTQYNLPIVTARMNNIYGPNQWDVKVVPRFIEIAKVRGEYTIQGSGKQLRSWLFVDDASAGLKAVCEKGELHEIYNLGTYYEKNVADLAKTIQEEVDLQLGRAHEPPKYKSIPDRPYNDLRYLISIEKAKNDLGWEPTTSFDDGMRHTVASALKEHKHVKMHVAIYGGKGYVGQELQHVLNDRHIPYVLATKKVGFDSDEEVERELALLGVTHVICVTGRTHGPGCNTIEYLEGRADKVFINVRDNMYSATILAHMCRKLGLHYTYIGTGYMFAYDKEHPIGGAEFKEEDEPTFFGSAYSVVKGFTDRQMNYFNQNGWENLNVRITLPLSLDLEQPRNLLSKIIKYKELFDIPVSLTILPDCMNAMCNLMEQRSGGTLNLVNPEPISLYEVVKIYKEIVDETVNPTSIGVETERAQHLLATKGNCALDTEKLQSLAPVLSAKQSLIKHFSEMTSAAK
T2 sequence (Q95XM5 1-383 partner): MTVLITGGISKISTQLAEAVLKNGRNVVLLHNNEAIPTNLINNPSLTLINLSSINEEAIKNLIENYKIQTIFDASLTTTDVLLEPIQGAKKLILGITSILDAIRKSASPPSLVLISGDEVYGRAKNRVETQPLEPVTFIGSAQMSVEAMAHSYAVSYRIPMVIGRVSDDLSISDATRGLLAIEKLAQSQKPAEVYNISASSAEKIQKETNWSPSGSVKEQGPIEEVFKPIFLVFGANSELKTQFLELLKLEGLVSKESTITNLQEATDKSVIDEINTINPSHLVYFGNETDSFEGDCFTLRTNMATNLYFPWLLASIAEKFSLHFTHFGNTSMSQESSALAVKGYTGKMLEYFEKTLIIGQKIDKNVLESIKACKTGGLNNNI

Row | SMILES | Km (RML-1) [µM] | LC-MS; 1H NMR and COSY of HPLC-purified product (RML-4–RML-5)
1 | O=c1ccn([C@@H]2O[C@H](COP(=O)(O)OP(=O)(O)OP(=O)(O)O)[C@@H](O)[C@H]2O)c(=O)[nH]1 [UTP] | 9.47 ± 1.7 | 
2 | Cc1cn([C@H]2C[C@H](O)[C@@H](COP(=O)(O)OP(=O)(O)O[C@H]3O[C@@H](C)[C@H](O)[C@@H](O)[C@H]3O)O2)c(=O)[nH]c1=O [dTDP-rhamnose] |  | the final product is dTDP-rhamnose when dTDP-4-keto-6-deoxyglucose is incubated with RML-3 and RML-4–RML-5
3 | Cc1cn([C@H]2C[C@H](O)[C@@H](COP(=O)(O)OP(=O)(O)OP(=O)(O)O)O2)c(=O)[nH]c1=O [dTTP] | 24.2 ± 2.86 | 
